For data set [1] the following is noted: cited from earlier work.
For data set [2], the system named is LNCaP (androgen-sensitive) human prostate cancer tumors SRCX. In words: Growth of LNCaP prostate cancer tumors SRCX in mice. It is filed as in vivo. As to conditions: 3 weeks. The procedure:
LNCaP prostate cancer was treated for 3 weeks according to the following regimen.

In data set [3] the test system is androgen-independent metastatic prostate cancer. As to conditions: TAX 327 phase III study, patients; cited from earlier work.
The test system of data set [4] is human prostate cancer cells in culture. As to conditions: cited from earlier work.
For data set [5], the system named is human prostate cancer cells in mouse xenografts. As to conditions: cited from earlier work.
Another data set has as its system PSA. As to conditions: cited from earlier work.

Molecules are shown by their SMILES.

Turning to `CC(=O)O[C@@]12CO[C@@H]1C[C@H](O)[C@@]1(C)C(=O)[C@H](O)C3=C(C)[C@@H](OC(=O)[C@H](O)[C@@H](NC(=O)OC(C)(C)C)c4ccccc4)C[C@@](O)([C@@H](OC(=O)c4ccccc4)[C@H]21)C3(C)C` [Taxotere®, docetaxel], the “water solubility compared with paclitaxel” value in data set [1] was “more water soluble than paclitaxel”. Moreover, in data set [2] (Aneustat 1652 mg/kg oral gavage QD x 21, Taxotere 10 mg/kg IP d=1, 8, 15, P<0.01), the “inhibition of growth of LNCaP tumors” value is given as “significantly inhibited growth”. In addition, in data set [2] (Aneustat 1652 mg/kg oral, Taxotere 10 mg/kg IP), the “efficacy in tumor size reduction (FIG. 1)” value is recorded as “somewhat more effective”. Besides, in data set [3], the overall response rate was 12%.
Consider `COc1cc(CNC(=O)CCCC/C=C/C(C)C)ccc1O` [capsaicin], for which the anti-proliferative effect entry in data set [4] and in data set [5] was “profound anti-proliferative effect” in each case. In addition, the PSA expression entry with PSA is listed as “down-regulates PSA expression”.
In the case of `O=C1c2c(O)ccc(O)c2C(=O)c2c(NCCNCCO)ccc(NCCNCCO)c21` [mitoxantrone], the overall response rate in data set [3] is given as 7%.

The values above are taken from patent US20160143971A1, “COMBINATION THERAPY FOR PROSTATE CANCER USING BOTANICAL COMPOSITIONS AND DOCETAXEL” (GENYOUS BIOMED INTERNATIONAL, priority 2013, published 2016).
